By half-life is commonly meant the time in which the quantity being followed falls by half. By thermodynamic solubility is commonly meant solubility found after equilibrating the solid with the medium. As a reminder, the Cmax is the maximum level reached in the sampled fluid or tissue. Broadly, the Tmax is the time from dosing to the highest level. As a reminder, the Papp A→B is how fast a substance crosses the layer from the apical side. Low values mean slow passage, high ones fast passage. The term TGI denotes how far tumour growth fell short of that in controls. The term AUC denotes concentration integrated over time. Lower therefore signals less exposure. For orientation: logD means the decadic logarithm of the distribution of all forms, ionised or not, between an organic phase and buffer at a given pH. Low readings indicate a more hydrophilic compound, high ones a more lipophilic compound. Broadly, the IC50 is the concentration needed to halve the response being measured.

We go through one compound from ChEMBL document CHEMBL5584243, “Discovery of JNJ-74856665: A Novel Isoquinolinone DHODH Inhibitor for the Treatment of AML” (J Med Chem, 2024).

Some results are limits rather than exact numbers.

Data set [1] is described as follows: Metabolic stability in human liver microsomes assessed as half life incubated upto 60 mins in presence of NADPH by LC-MS/MS analysis. The class given is ADME, Microsome. Background: Liver microsomes are a subcellular fraction often used to study metabolism.
Data set [2] can be described thus: Equilibrium solubility of compound in SGF at pH 1 using crystalline form incubated for 2 to 5 days by HPLC analysis. The class given is ADME. To be noted: time 2-5 day.
A short description of data set [3]: Plasma protein binding in human at 1 uM incubated for 6.5 hrs by LC-MS/MS analysis. Type of data set: ADME, cell-free. The settings on record: read-out: PPB (converted).
Data set [4] in a line: Volume of distribution at steady state in C57BL mouse at 2 mg/kg,iv measured upto 24 hrs by LC-MS/MS analysis. Type of data set: ADME, organism-based. The settings on record: in vivo, read-out: Vdss.
Data set [5] in a line: Plasma protein binding in C57BL mouse at 1 uM incubated for 6.5 hrs by LC-MS/MS analysis. Type of data set: ADME, cell-free. To be noted: read-out: PPB (converted).
The nature of data set [6]: Cmax in C57BL mouse at […] measured upto 24 hrs by LC-MS/MS analysis. Type of data set: ADME, organism-based. The settings on record: in vivo.
A short description of data set [7]: Half life in C57BL mouse at 2 mg/kg,iv measured upto 24 hrs by LC-MS/MS analysis. The class given is ADME, organism-based. To be noted: in vivo.
Data set [8] is described as follows: Tmax in C57BL mouse at […] measured upto 24 hrs by LC-MS/MS analysis. Type of data set: ADME, organism-based. To be noted: in vivo.
Data set [9] can be described thus: Passive permeability across apical to basolateral side in dog MDCK-MDR1 cells. The class given is ADME, cell-based, Canis lupus familiaris.
A short description of data set [10]: Equilibrium solubility of compound in FaSSIF at pH 6.5 using crystalline form incubated for 2 to 5 days by HPLC analysis. The class given is ADME. The settings on record: time 2-5 day.
The subject of data set [11] is MOLM-13. Kind of data set: Antitumor activity against human MOLM-13 cells xenografted in NSG mouse assessed as tumor growth inhibition at 0.625 to 2.5 mg/kg,po administrated for 21 days relative to control. The class given is functional. The settings on record: dose 0.625-2.5 mg/kg, time 21 day. (Xenograft models place foreign cells or tissue in a host animal.)
The nature of data set [12]: AUC (0 to infinity) in C57BL mouse at 2 mg/kg,iv measured upto 24 hrs by LC-MS/MS analysis. To be noted: in vivo. Type of data set: ADME, organism-based.
A short description of data set [13]: Lipophilicity, logD of compound. The class given is physicochemical. The settings on record: octanol/water.
Data set [14] in a line: Equilibrium solubility of compound in PBS at pH 7 incubated for 2 to 5 days by HPLC analysis. The class given is physicochemical. The settings on record: time 2-5 day.
In data set [15] the test system is MOLM-13. Kind of data set: Antitumor activity against human MOLM-13 cells xenografted in NSG mouse assessed as tumor growth inhibition at po administrated for 21 days. The class given is functional, organism-based. The settings on record: time 21.0 day.
A short description of data set [16]: Metabolic stability in mouse liver microsomes assessed as half life incubated upto 60 mins in presence of NADPH by LC-MS/MS analysis. Type of data set: ADME, Microsome.
Data set [17] deals with MOLM-13. Kind of data set: Antiproliferative activity against human MOLM-13 cells assessed as inhibition of cell growth incubated for 72 hrs by CellTiter-Glo assay. The settings on record: MOLM-13, 72 h. Type of data set: functional, cell-based.
Data set [18] can be described thus: Oral bioavailability in C57BL mouse at 10 mg/kg measured upto 24 hrs by LC-MS/MS analysis. Type of data set: ADME, organism-based. The settings on record: in vivo.
Data set [19] is described as follows: Equilibrium solubility of compound in PBS at pH 2 incubated for 2 to 5 days by HPLC analysis. The class given is physicochemical. To be noted: PBS, time 2-5 day.

Consider `CCn1c(CO)nn(-c2cc3c(C(C)C)cn(-c4c(F)cccc4Cl)c(=O)c3cc2F)c1=O`, for which the half-life in data set [1] was greater than 3 h; in [7], 5.1 h; in data set [16] it was greater than 3 h. Further, the thermodynamic solubility in [2] was less than 5 µg/mL; in data set [10], less than 5 µg/mL; in data set [14], less than 4 µM; in [19] it was less than 4 µM. Further, the fraction unbound at 6.5 h, 1 µM in data set [3] was 0.042; in [5], 0.024. Moreover, the Vd in data set [4] is 1.3 L/kg. In addition, the Cmax in [6] is 8200 ng/mL. Besides, the Tmax in data set [8] is 0.83 h. The same compound returned a Papp A→B in data set [9] of 24.5 ×10⁻⁶ cm/s. Besides, the TGI with MOLM-13 [11] is greater than 80%. Moreover, the AUC in data set [12] stood at 71800 ng·h/mL. For the same compound, the logD in data set [13] worked out at 3.1. The Activity result in the data set with MOLM-13 [15] is “Dose-Dependent Effect”. Besides, the IC50 in the data set on MOLM-13 [17] turned out to be 0.22 nM. For the same compound, the bioavailability in data set [18] was determined as 135%.
